According to PMC10877416 (Translational Oncology, 2024):
Like-named read-outs stand apart in the source and are kept apart here. Ends that are not written are not given here. Peptide text beside a SMILES is read from it.

Columns and labels:
[1] = Solubility in water; type: physicochemical
Text: To increase solubility, its sequence was elongated at the N- and C-terminals by adding hydrophilic amino acids from the protein sequence. […] These modifications were introduced to prevent the oxidation of methionine and cysteine.

[2] = biological target: PD-1 protein; settings: Table S5, supplement reference list, read-out: Affinity (KD), cited from earlier work
[3] = biological target: PD-L1 protein; settings: Table S6, supplement reference list, read-out: Affinity (KD), cited from earlier work
Text: Supplement mmc1.docx, table 8: Table S6. […] D - amino acids are marked with a lowercase letter. NB - no binding; ND - no data; JD - no name given by the authors. | column: Affinity (KD) [µM]

[4] = biological target: programmed cell death 1 (PD-1) (human, UniProt Q15116 25-170); assay: SPR; Biacore T200; biotin-(Gly)5-peptides immobilised on an SA sensor chip (~800 RU, L1 ~500 RU); PD-1 injected at 0.31-10 µM (two-fold dilutions); PBS-P running buffer, 30 µl/min, 25°C; 1:1 binding model, at least three titrations; settings: both partners purified
programmed cell death 1 (PD-1), sequence (Q15116 25-170): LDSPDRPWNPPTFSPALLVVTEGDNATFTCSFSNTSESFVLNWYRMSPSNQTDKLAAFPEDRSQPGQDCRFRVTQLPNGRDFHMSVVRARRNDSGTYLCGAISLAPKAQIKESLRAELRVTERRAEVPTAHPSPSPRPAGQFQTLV

CCCC[C@H](NC(=O)[C@H](CCC(=O)O)NC(=O)[C@H](Cc1c[nH]c2ccccc12)NC(=O)[C@H](Cc1ccc(O)cc1)NC(C)=O)C(=O)N[C@@H](CCC(=O)O)C(=O)N[C@@H](CC(=O)O)C(=O)N[C@@H](CCCCN)C(=O)N[C@@H](CC(N)=O)C(=O)N[C@H](C(=O)N[C@H](C(=O)N[C@@H](CCC(N)=O)C(N)=O)[C@@H](C)CC)[C@@H](C)CC [Peptide L6] (HELM PEPTIDE1{[ac].Y.W.E.[Nle].E.D.K.N.I.I.Q.[am]}$$$$V2.0)
Solubility in water [1]: no positive effect on the solubility

GNADYNSQRAQLYNQ [Ar5Y_4 W3A]
Kd ([2]; ref [3]): 8.08 µM

[CKWYRPSEC] [Peptide C8]
Kd ([2]; ref [16]): 0.64 µM

RCMICYGGADYKRI [Peptide P1.1]
Kd ([2]; ref [11]): 3.66 µM

GDWFKAYYDKVAEG [Peptide 4F-8]
Kd ([3]; ref [47]): 412 µM

DWIKANYDETAEYNKEAK [Peptide 4F-30]
Kd ([3]; ref [47]): 419 µM

SGQYASYHCWCWRDPGRSGGSK [TPP-1]
Kd ([3]; ref [34]): 0.095 µM

RTMIWYpPAWYKRI [Peptide P2.1]
Kd ([2]; ref [11]): 29.2 µM

GNWAYNSQRAQLYNQ [Ar5Y_4 D4A]
Kd ([2]; ref [3]): 18.9 µM

GTRLKPLIICVQWPGL [PD-L1ip3]
Kd ([3]; ref [40]): 33 µM

LDYDGRLSQ [Ar4_2]
Kd ([2]; ref [3]): 83.9 µM

LEYWSSGSTTMYGL [Pep9]
Kd ([2]; ref [12]): 36.4 µM

FNWDYSWKSERLKEAYDL [Ar5Y_1]
Kd ([2]; ref [3]): 3.39 µM

LDYGDKREGQMAE [Ar5M_1]
Kd ([2]; ref [3]): 21.6 µM

TEKDYRHGNIRMKLAYDL [Ar5Y_3]
Kd ([2]; ref [3]): 3.13 µM

LDYVNRRKMYQ [Ar5M_2]
Kd ([2]; ref [3]): 3.32 µM

TFKVEDRYGQGQQILD [Pep4]
Kd ([2]; ref [12]): 22.7 µM

LETWFGKEILVKT [Pep1]
Kd ([2]; ref [12]): 140 µM

RRQWFW [JD2]
Kd ([2]; ref [19]): 4.38 µM

QYRCNGTSSKGSDQAIITLRV [Pep14]
Kd ([2]; ref [12]): 10.9 µM

RRWQWR [WANG-005]
Kd ([2]; NB = no binding, ref [6]): 5.1 µM

DWFKAFYDKINETYNK [Peptide 4F-32]
Kd ([3]; ref [47]): 0.017 µM

GNWDYNSQRAQLANQ [Ar5Y_4 Y13A]
Kd ([2]; ref [3]): 10.2 µM

FSGTVTTAGLLF [P-F4]
Kd ([2]; ref [17]): 0.119 µM

RTMIWYAAAWYKRI [Peptide P2.2]
Kd ([2]; ref [11]): 55.2 µM

GNWDANSQRAQLYNQ [Ar5Y_4 Y5A]
Kd ([2]; ref [3]): 20.2 µM

SGQQRTSADCWEDHGWGSGGSK [PBP]
Kd ([2]; ref [22]): 17.4 µM

HYPFRPHANQAS [CLP001]
Kd ([2]; ref [10]): 0.534 µM

DYHDPSLPTLRK [CLP004]
Kd ([2]; ref [10]): 0.544 µM

VFELRHSKRKDSRTVY [Pep2]
Kd ([2]; ref [12]): 127 µM

WHFSYNWRWLPP [CLP003]
Kd ([2]; ref [10]): 0.117 µM

RRWWRR [JD1]
Kd ([2]; ref [19]): 4.01 µM

CYRCMISYGGADYKRIC (disulfide (positions not given here))
Kd ([2]; ref [8]): 17.5 µM

LERHDFGDGRARYEE [Pep10]
Kd ([2]; ref [12]): 39 µM

SHFSASYDKYAEKF [Peptide 4F-16]
Kd ([3]; ref [47]): 49.4 µM

KSKAVNRVSQESEM [Pep6]
Kd ([2]; ref [12]): 66.4 µM

GQSEHHMRVYSF [OPBP-1]
Kd ([3]; ref [38]): 0.667 µM

FNWDYSLEELREKAKYK [Ar5Y_2]
Kd ([2]; ref [3]): 3.14 µM

CRAMISYGGADYK-(N-Me-Arg)-IC [MN1.4]
Kd ([2]; ref [21]): 2 µM

WHRSYYTWNLNT [CLP002]
Kd ([2]; ref [10]): 0.366 µM

GIDYEERWK [Ar4_1]
Kd ([2]; ref [3]): 28.3 µM

FRWWR [WANG-004]
Kd ([2]; NB = no binding, ref [6]): 1.6 µM

RTMIWYGpAWYKRI [Peptide P2.3]
Kd ([2]; ref [11]): 129 µM

TSEVDNGVGKPQKHS [Pep3]
Kd ([2]; ref [12]): 81.1 µM

RTCITYpGADYCRI [Peptide P1.4]
Kd ([2]; ref [11]): 474 µM

SRLKEIANSPTQFWRMVARNTLGNGAKQSLNIEHARL [nABP284]
Kd ([2]; ref [18]): 11.8 µM

GNWDYNSQAAQLYNQ [Ar5Y_4 R9A]
Kd ([2]; ref [3]): 21.2 µM

WDYD [Ar3_1]
Kd ([2]; ref [3]): 22.3 µM

CVYRCMISYGGADYKRITC (disulfide (positions not given here)) [ΔDS-II [C110–C128]]
Kd ([2]; ref [8]): 11.6 µM

CLQKTPKQC [PD-L1Pep-1]
Kd ([3]; ref [36]): 0.373 µM

KRWWR [WANG-003]
Kd ([2]; NB = no binding, ref [6]): 3.3 µM

[TMYLerRYpD] [PD-i3]
Kd ([2]; ref [13]): 102 µM

SHHHRLSRLKEIANSPTQFWRMVARNTLGNGAKQSLNIEHARL [nABPD1]
Kd ([2]; ref [18]): 0.0119 µM

GNWDYNSQRAQLYNQ [Ar5Y_4]
Kd ([2]; ref [3]): 1.38 µM

CVRARTR [PD-L1Pep-2]
Kd ([3]; ref [36]): 0.281 µM

RCMISYpGADYKRI [Peptide P1.2]
Kd ([2]; ref [11]): 83 µM

B1: PD-L1(113-126), biotin-(Gly)5 form (peptide)
chain: RCMISYGGADYKRI
HELM: PEPTIDE1{[O=C1N[C@H]2[C@H](CS[C@H]2CCCCC(=O)[*:2])N1].G.G.G.G.G.R.[Abu].[Nle].I.S.Y.G.G.A.D.Y.K.R.I.[am]}$$$$V2.0
SMILES: CCCC[C@H](NC(=O)[C@H](CC)NC(=O)[C@H](CCCNC(=N)N)NC(=O)CNC(=O)CNC(=O)CNC(=O)CNC(=O)CNC(=O)CCCC[C@@H]1SC[C@@H]2NC(=O)N[C@@H]21)C(=O)N[C@H](C(=O)N[C@@H](CO)C(=O)N[C@@H](Cc1ccc(O)cc1)C(=O)NCC(=O)NCC(=O)N[C@@H](C)C(=O)N[C@@H](CC(=O)O)C(=O)N[C@@H](Cc1ccc(O)cc1)C(=O)N[C@@H](CCCCN)C(=O)N[C@@H](CCCNC(=N)N)C(=O)N[C@H](C(N)=O)[C@@H](C)CC)[C@@H](C)CC
koff [4]: 0.000194 s⁻¹ | kon [4]: 24.7 M⁻¹ s⁻¹

B2: PD-L1(110-128)(V111C-T127C), biotin-(Gly)5 form (peptide)
chain: GCYRCMISYGGADYKRICV
HELM: PEPTIDE1{[O=C1N[C@H]2[C@H](CS[C@H]2CCCCC(=O)[*:2])N1].G.G.G.G.G.G.C.Y.R.[Abu].[Nle].I.S.Y.G.G.A.D.Y.K.R.I.C.V.[am]}$PEPTIDE1,PEPTIDE1,8:R3-24:R3$$$V2.0
SMILES: CCCC[C@@H]1NC(=O)[C@H](CC)NC(=O)[C@H](CCCNC(=N)N)NC(=O)[C@H](Cc2ccc(O)cc2)NC(=O)[C@@H](NC(=O)CNC(=O)CNC(=O)CNC(=O)CNC(=O)CNC(=O)CNC(=O)CCCC[C@@H]2SC[C@@H]3NC(=O)N[C@@H]32)CSSC[C@@H](C(=O)N[C@H](C(N)=O)C(C)C)NC(=O)[C@H]([C@@H](C)CC)NC(=O)[C@H](CCCNC(=N)N)NC(=O)[C@H](CCCCN)NC(=O)[C@H](Cc2ccc(O)cc2)NC(=O)[C@H](CC(=O)O)NC(=O)[C@H](C)NC(=O)CNC(=O)CNC(=O)[C@H](Cc2ccc(O)cc2)NC(=O)[C@H](CO)NC(=O)[C@H]([C@@H](C)CC)NC1=O
koff [4]: 0.00071 s⁻¹ | kon [4]: 33.1 M⁻¹ s⁻¹

B3: PD-L1(111-127), biotin-(Gly)5 form (peptide)
chain: VYRCMISYGGADYKRIT
HELM: PEPTIDE1{[O=C1N[C@H]2[C@H](CS[C@H]2CCCCC(=O)[*:2])N1].G.G.G.G.G.V.Y.R.[Abu].[Nle].I.S.Y.G.G.A.D.Y.K.R.I.T.[am]}$$$$V2.0
SMILES: CCCC[C@H](NC(=O)[C@H](CC)NC(=O)[C@H](CCCNC(=N)N)NC(=O)[C@H](Cc1ccc(O)cc1)NC(=O)[C@@H](NC(=O)CNC(=O)CNC(=O)CNC(=O)CNC(=O)CNC(=O)CCCC[C@@H]1SC[C@@H]2NC(=O)N[C@@H]21)C(C)C)C(=O)N[C@H](C(=O)N[C@@H](CO)C(=O)N[C@@H](Cc1ccc(O)cc1)C(=O)NCC(=O)NCC(=O)N[C@@H](C)C(=O)N[C@@H](CC(=O)O)C(=O)N[C@@H](Cc1ccc(O)cc1)C(=O)N[C@@H](CCCCN)C(=O)N[C@@H](CCCNC(=N)N)C(=O)N[C@H](C(=O)N[C@H](C(N)=O)[C@@H](C)O)[C@@H](C)CC)[C@@H](C)CC
koff [4]: 0.00179 s⁻¹ | kon [4]: 10.9 M⁻¹ s⁻¹
